From US4910199A, “Imidazo[1,2-]pyridazines for cortical cholinergic deficiencies” (Sanofi, priority 1987, dated 1990)

Experiments:
[1] = test system: rotatory behavior induced by intrastriatal pirenzepine; test: antagonism of rotatory behavior induced by intrastriatal injection of pirenzepine in mice; assay type: in vivo, mouse (female, Swiss, CD 1); settings: Mus musculus, ip; 50% reduction in number of rotations; i.p. 15 minutes before pirenzepine 1 μg into right striatum
Experimental: The intrastriatal injection of PZ into mice induces rotatory behavior. The antagonism of this behavior by the products according to the invention was studied. The products according to the invention are injected intraperitoneally (i.p.) after solubilization in distilled water or suspension in a 5% solution of gum arabic. The control animals receive an injection of the pure solvent under the ssame conditions. The animals used are female mice (Swiss, CD 1, Charles River, France) with a body weight of between 25 and 30 grams. The pirenzepine is dissolved in a phosphate buffer and the pH of the solution is 6. The test products of their solvents are injected intraperitoneally in a volume of 0.4 ml per 20 g of body weight, 15 minutes before a direct injection of pirenzepine into the right striatum of the mouse at a dose of 1 μg in 1 μl of solvent, according to the method described by P. WORMS et al. in Eur. J. Pharmacol., 1986, 121, 395-401. The number of contralateral rotations (rotations in the opposite direction to the side injected) was counted for three 2-minute periods after injection of the pirenzepine: 2nd to 4th, 8th to 10th and 13th to 15th minutes. Each treatment consists of 3 to 4 doses with 10 animals per dose. The total number of rotations and the percentage antagonism with respect to the control group are calculated for each treatment. The 50% effective dose (ED50), i.e. the dose which causes a 50% reduction in the number of rotations induced by pirenzepine, is determined graphically for each product.

[2] = target: T1, M1-type muscarinic cholinergic receptor (Rattus norvegicus, UniProt P08482); test: affinity for the M1-type muscarinic cholinergic receptor ([3H]-pirenzepine displacement, rat hippocampus homogenate); assay type: binding; settings: for IC50: [3H]-PZ 1 nM, rat hippocampus homogenate, 2 h at 4° C., pH 7.40; for r = (M2/M1): ratio of the IC50 values for M2 (3H-NMS) and M1 (3H-pirenzepine), selectivity
T1 sequence (P08482 1-460): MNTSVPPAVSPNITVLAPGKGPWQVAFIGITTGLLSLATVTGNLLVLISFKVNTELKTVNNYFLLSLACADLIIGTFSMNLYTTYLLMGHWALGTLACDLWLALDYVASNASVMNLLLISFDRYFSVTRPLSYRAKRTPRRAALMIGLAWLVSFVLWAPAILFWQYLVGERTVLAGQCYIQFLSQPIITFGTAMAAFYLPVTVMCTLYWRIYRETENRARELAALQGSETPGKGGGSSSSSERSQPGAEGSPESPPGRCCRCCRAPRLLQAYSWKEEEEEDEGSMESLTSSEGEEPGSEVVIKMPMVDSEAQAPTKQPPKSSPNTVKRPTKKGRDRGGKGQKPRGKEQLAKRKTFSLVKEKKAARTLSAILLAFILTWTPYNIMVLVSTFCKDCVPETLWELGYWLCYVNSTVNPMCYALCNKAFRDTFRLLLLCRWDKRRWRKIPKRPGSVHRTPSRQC
Experimental: The interaction of the molecules with the M1 -type muscarinic receptors was studied by in vitro measurement, on a rat hippocampus homogenate, of the displacement of tritiated pirenzepine ([^3 H]-PZ) from its specific binding sites. Aliquots (10 μl) of a 5% (w/v) rat hippocampus homogenate in an Na2 HPO4 buffer (50 mM, pH 7.40) are incubated for 2 h at 4° C. in the presence of [^3 H]-PZ (76 Ci/nmol; final concentration 1 nM) and increasing concentrations of the test product. The final volume is 2 ml. The reaction is stopped by centrifugation for 10 min at 50 000×g. After decantation and washing of the residues, the bound radio-activity is counted by liquid scintillation. The non-specific binding is determined in the presence of 10 μM atropine sulfate. The 50% inhibitory concentration (IC50) is determined graphically.

[3] = target: T2, M2-type muscarinic cholinergic receptor (Cavia porcellus, UniProt H0VRN8); test: affinity for the M2-type muscarinic cholinergic receptor ([3H]-N-methylscopolamine displacement, smooth guinea-pig ileum muscle homogenate); assay type: binding; settings: [3H]-NMS 0.3 nM, 20 min at 30° C., pH 7.5
T2 construct: on a smooth guinea-pig ileum muscle homogenate; from tissue; host or cells: guinea-pig ileum smooth muscle homogenate
T2 sequence (H0VRN8 1-466): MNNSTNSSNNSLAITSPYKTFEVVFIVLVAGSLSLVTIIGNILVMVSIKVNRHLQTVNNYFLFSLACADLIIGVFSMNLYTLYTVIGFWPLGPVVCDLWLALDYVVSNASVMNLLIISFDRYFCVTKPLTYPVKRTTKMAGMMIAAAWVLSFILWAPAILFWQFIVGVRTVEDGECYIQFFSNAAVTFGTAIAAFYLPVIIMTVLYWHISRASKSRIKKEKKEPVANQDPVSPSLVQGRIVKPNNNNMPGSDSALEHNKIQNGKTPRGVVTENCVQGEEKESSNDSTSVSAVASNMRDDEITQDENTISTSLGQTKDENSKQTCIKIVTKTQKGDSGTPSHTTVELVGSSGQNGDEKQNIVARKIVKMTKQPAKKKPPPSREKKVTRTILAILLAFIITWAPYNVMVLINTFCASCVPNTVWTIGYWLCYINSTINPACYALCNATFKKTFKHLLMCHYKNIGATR
Experimental: The M1 -type receptors are concentrated in certain regions of the brain, such as the hippocampus, the cerebral cortex and the striatum, and also in the sympathetic ganglia. These binding sites can be selectively labeled with [^3 H]-pirenzepine ([^3 H]-PZ). The M2 -type rreceptors predominate in the heart and the ileum and can be labeled with [^3 H]-N-methylscopolamine ([^3 H]-NMS). The selectivity of the compounds of the invention with respect to the M1 and M2 sites was determined by studying their in vitro interaction with [^3 H]-PZ and [^3 H]-NMS firmly bound with a high affinity to rat hippocampus membranes and smooth guinea-pig ileum muscle, respectively.
The interaction with the M2 -type muscarinic receptors was studied by in vitro measurement, on a smooth guinea-pig ileum muscle homogenate, of the displacement of tritiated N-methylscopolamine ([^3 H]-NMS) from its specific binding sites. Aliquots (50 μl) of a 0.625% (w/v) smooth guinea-pig ileum muscle homogenate in HEPES buffer (20 mM) containing NaCl (100 mM) and MgCl2 (10 mM) (final pH: 7.5) are incubated for 20 min at 30° C. in the presence of [^3 H]-NMS ([…]; final concentration 0.3 nM) and increasing concentrations of the test products. The final volume is 1 ml. The reaction is topped by centrifugation for 5 min at 15 000×g. The non-specific binding is determined in the presence of 10 μM atropine sulfate. (Ref.: R. Hammer, C. P. Berrie, N. I. M. Birdsall, A. S. V. Burgen and E. C. Hulme, Nature, 283, 90-92, 1980; E. C. Hulme, N. I. M. Birdsall, A. S. V. Burgen and P. Mettha, Mol. Pharmacol., 14, 737-750, 1978.)
Table 5 indicates the affinities of the products of the invention for the M1 and M2 receptors. The results are expressed as 50 percent inhibitory concentrations (IC50), i.e. the concentration (in μM) which induces the displacement of 50% of the tritiated ligand bound to the membrane receptors. The IC50 for ^3 H-pirenzepine displacement represents the affinity for the M1 receptor; The IC50 for ^3 H-NMS displacement represents the affinity for the M2 receptor.

## c1ccc(-c2ccc3nc(CN4CCOCC4)cn3n2)cc1 [SR 95842 A]
[1]
  ED50: 3 mg/kg

## Cc1cc(-c2ccccc2)nn2c(CN3CCOCC3)cnc12.Cl.Cl [SR 95950 A, 8-Methyl-3-morpholinomethyl-6-phenylimidazo[1,2-b]pyridazine dihydrochloride]
[1]
  ED50: 5 mg/kg
[2]
  IC50: 1.4 µM
  r = (M2/M1): > 71
[3]
  IC50: > 100 µM

## CCN(CC)Cc1cn2nc(-c3ccccc3)cc(C)c2n1.Cl.Cl [SR 96052 A, 2-Diethylaminomethyl-8-methyl-6-phenylimidazo[1,2-b]pyridazine dihydrochloride]
[1]
  ED50: 8 mg/kg
[2]
  IC50: 0.5 µM
  r = (M2/M1): 130
[3]
  IC50: 65 µM

## c1ccc(-c2ccc3ncc(CN4CCOCC4)n3n2)cc1 [SR 96068 A]
[1]
  ED50: 10 mg/kg

## CCN(CC)Cc1cn2nc(-c3ccccc3)ccc2n1 [SR 96069 A]
[2]
  IC50: 1.5 µM
  r = (M2/M1): 66
[3]
  IC50: 100 µM

## CN(C)Cc1cnc2ccc(-c3ccccc3)nn12 [SR 96070 A]
[1]
  ED50: 3 mg/kg

## COc1cccc(-c2cc(C)c3ncc(CN4CCOCC4)n3n2)c1 [SR 96088 A]
[2]
  IC50: 8 µM

## Clc1ccc(-c2ccc3nc(CN4CCOCC4)cn3n2)cc1 [SR 96089 A]
[2]
  IC50: 3 µM
  r = (M2/M1): > 33
[3]
  IC50: > 100 µM

## CCN(CC)Cc1cn2nc(-c3cccc(OC)c3)cc(C)c2n1 [SR 96095 A]
[1]
  ED50: 5 mg/kg
[2]
  IC50: 0.4 µM
  r = (M2/M1): 162
[3]
  IC50: 65 µM

## Clc1ccc(-c2ccc3ncc(CN4CCOCC4)n3n2)cc1 [SR 96109 A]
[1]
  ED50: 8 mg/kg

## c1ccc(-c2cc(-c3ccccc3)c3ncc(CN4CCOCC4)n3n2)cc1 [SR 96111 A]
[1]
  ED50: 7 mg/kg
